Source: patent US9512107B2, “Therapeutically active compositions and their methods of use” (Agios Pharmaceuticals, Inc., priority 2012, dated 2016)
Positions count from the first letter of the chain named.

Tests used:
[1] = target: T1, IDH2 R172K (Homo sapiens, UniProt P48735, R172K); experiment: IDH2 R172K enzymatic assay (NADPH cofactor depletion, diaphorase/resazurin readout); format: biochemical; conditions: read-out: Enz R172K
T1 sequence (P48735 40-452 R172K): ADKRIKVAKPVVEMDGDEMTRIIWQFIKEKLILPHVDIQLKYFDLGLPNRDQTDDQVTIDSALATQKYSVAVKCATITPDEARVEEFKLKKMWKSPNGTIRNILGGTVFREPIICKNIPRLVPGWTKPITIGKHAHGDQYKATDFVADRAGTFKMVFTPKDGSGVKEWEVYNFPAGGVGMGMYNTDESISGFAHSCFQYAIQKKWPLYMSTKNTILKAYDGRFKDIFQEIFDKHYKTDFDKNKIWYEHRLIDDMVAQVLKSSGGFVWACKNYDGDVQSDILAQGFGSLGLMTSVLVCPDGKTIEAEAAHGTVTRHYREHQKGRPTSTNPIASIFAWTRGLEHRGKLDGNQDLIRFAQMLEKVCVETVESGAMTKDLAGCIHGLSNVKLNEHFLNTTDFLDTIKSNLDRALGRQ
How it was run: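 Compound was preincubated with IDH2 R172K for 1 h at room temperature, then the reaction was started with substrate mix containing 50 μM NADPH and 6.3 mM α-KG. After another 1 h at room temperature, stop mix with diaphorase and resazurin consumed the remaining NADPH, and resorufin fluorescence was read.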

[2] = target: T2, IDH2 R140Q (Homo sapiens, UniProt P48735, R140Q); experiment: IDH2 R140Q enzymatic assay (cofactor depletion, similar format); format: biochemical; conditions: read-out: Enz R140Q
T2 sequence (P48735 40-452 R140Q): T1 sequence (P48735 40-452 R172K) with R101Q, K133R

[3] = tested on: U87MG pLVX-IDH2 R140Q-neo cells; experiment: U87MG pLVX-IDH2 R140Q-neo cell based assay, 2-HG in media by LC-MS at 48 hours; conditions: Homo sapiens, U-87 MG
How it was run: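 U87MG cells stably expressing IDH2 R140Q were seeded overnight, then exposed to compound at 0.2% final DMSO at 37 °C, 5% CO2. 2-HG in the medium was quantified by LC-MS at 48 h. Growth inhibition was read by CellTiter-Glo luminescence at 72 h.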

SMILES | IC50 [1] | IC50 [2] | IC50 [3]
CC(Nc1nc(Nc2ccnc(C(F)(F)F)c2)nc(-c2cccc(N)n2)n1)C(F)(F)F (stereo not drawn) [Compound 694, 6-(6-aminopyridin-2-yl)-N2-(2-(trifluoromethyl)pyridin-4-yl)-N4-(1,1,1-trifluoropropan-2-yl)-1,3,5-triazine-2,4-diamine] | < 100 nM | 100 to 1000 nM | < 100 nM
CC(C)Nc1nc(Nc2ccnc(C(C)(F)F)c2)nc(-c2cccc(N)n2)n1 [Compound 696, 6-(6-aminopyridin-2-yl)-N2-(2-(1,1-difluoroethyl)pyridin-4-yl)-N4-isopropyl-1,3,5-triazine-2,4-diamine] | 100 to 1000 nM | 100 to 1000 nM | < 100 nM
CC(=O)Nc1cccc(-c2nc(Nc3ccnc(C(F)(F)F)c3)nc(NC(C)C)n2)n1 [Compound 697, N-(6-(4-(isopropylamino)-6-(2-(trifluoromethyl)pyridin-4-ylamino)-1,3,5-triazin-2-yl)pyridin-2-yl)acetamide] | 1000 to 10000 nM | 100 to 1000 nM | 100 to 1000 nM
CC(C)(C)Nc1nc(Nc2cc(F)cc(F)c2)nc(-c2cccc(N)n2)n1 [Compound 698, 6-(6-aminopyridin-2-yl)-N2-(tert-butyl)-N4-(3,5-difluorophenyl)-1,3,5-triazine-2,4-diamine] | < 100 nM | 100 to 1000 nM | < 100 nM

Next, values leading:

IC50 [1] | IC50 [2] | IC50 [3] | SMILES
< 100 nM | 100 to 1000 nM | < 100 nM | CC(C)(C)Nc1nc(Nc2ccnc(C(F)(F)F)c2)nc(-c2cccc(N)n2)n1 [Compound 695, 6-(6-aminopyridin-2-yl)-N2-tert-butyl-N4-(2-(trifluoromethyl)pyridin-4-yl)-1,3,5-triazine-2,4-diamine]
< 100 nM | 100 to 1000 nM | < 100 nM | Nc1cccc(-c2nc(NCC3CC3)nc(Nc3cc(F)cc(F)c3)n2)n1 [Compound 699, 6-(6-aminopyridin-2-yl)-N2-(cyclopropylmethyl)-N4-(3,5-difluorophenyl)-1,3,5-triazine-2,4-diamine]
